Data on three molecules can be found in US4598080A, “Certain-2-methyl-6-{4-[1-phenyl-1-hydroxypropyl]-phenoxymethyl}pyridines which inhibit microsonal monoxygenase systems in liver” (Richter Gedeon Vegyeszeti Gyar Rt, priority 1982, dated 1986).

The structures appear in SMILES notation.

One series deals with hexobarbital oxidase. The series can be described thus: hexobarbital narcosis period (change of hexobarbital oxidase activity in vivo). More on the design: species or system rat. The conditions noted are these: mean ± S.E.; for Hexobarbital Narcosis period in % of the control, 1 hour: 1 hour after administration; for Hexobarbital Narcosis period in % of the control (24 hours): 24 hours after administration. The protocol:
The enzyme inhibiting activity of the new compounds was tested in vivo, by measuring the change of hexobarbital oxidase activity. Female Hann.-Wistarrats, each weighing 50 to 60 g. were treated orally with a single 40 mg./kg. dose of the test compound. 1 and 24 hours after the administration of the active ingredient, the animals were narcotized with a 60 mg./kg. i.v. dosage of hexobarbital sodium, and the time elapsed until complete wakening was measured (Noordhoek, J.: Eur. J. Pharmacol., 3, 242 (1968)). The data were recorded, and the mean values, the standard errors, as well as the percentage increase with respect to the controls were calculated for each group. […] The hexobarbital concentration of the plasm, measured on the instant wakening, was the same for both the treated and the control animals, and thus the increase of narcosis period was not due to a certain central nervous interaction (Jori, A. et al.: Biochem. Pharmacol., 19, 2687 (1970)).

A further series is described as follows: acute toxicity. The conditions noted are these: rat, in vivo, po; H-Wistar rats of both sexes, single 500 mg./kg. p.o., observed for 14 days; read-out: Perished animals (%). The protocol:
The acute toxicity of the compounds of the formula (I) was tested on H-Wistar rats of both sexes, weighing 160 to 180 g. each. The compounds were administered in a single 500 mg./kg. dose, orally.

In a further series the test system is aminopyrine demethylase. The series can be described thus: aminopyrine demethylase activity of liver after oral treatment. It counts as in vivo, rat. To be noted: female H.Wistar rats, single 40 mg./kg. oral dose, liver taken two hours after treatment, results in % of the control (control = 260.7 ± 11.2 nmoles/g/min), mean ± S.E., the values are: activity. The protocol:
The enzyme inhibiting activity of the compounds of the formula (I) was further tested by determining the activity of the polysubstrate monooxygense enzyme system of the liver after treatment with the placebo and the compounds according to the invention, respectively. Female H.Wistar rats weighing 50 to 60 g. each were administered a single 40 mg./kg. dose of the test compounds, orally. Two hours after treatment the animals were decapitated and the livers were eliminated. After rinsing with a physiological saline solution at 0° C., drying and weighing, the livers were homogenized in a 0.1 molar Tris-HCl buffer (pH=7.2), containing 1.15% of potassium chloride at 0° C., centrifuged at 9000 g for 20 minutes, and the supernatant (postmitochondrial fraction) was used for further investigations. The microsomal fraction was prepared following the method developed by Cinti D. L. et al.: Biochem. Pharmacol., 21, 3249 (1972). The activity of aniline hydroxylase was determined from the velocity of p-amino-phenol formation according to Chabra R. S. et al.: Toxicol. Appl. Pharmacol., 22, 50 ( 1972). The activity of the aminopyrine demethylase was measured from the amount of the formaldehyde formed, according to Gourlay G. K. et al.: Biochem. Pharmacol., 27, 965 (1978). The control groups were treated with a placebo.

The conditions of series [1]: from H. Ippen: Index Pharmacorum (1970); cited from earlier work.
The mark [2] stands for this setting: female Hann.-Wistar rats, single 40 mg./kg. oral dose, hexobarbital sodium 60 mg./kg. i.v.
[3] abbreviates: reference compound, dose 100 mg/kg.

As for `CCC(O)(c1ccc(Cl)cc1)c1ccc(OCc2cccc(C)n2)cc1` (centres unmarked) [A, 2-methyl-6-{4-[1-(4-chlorophenyl)-1-hydroxypropyl]-phenoxymethyl}-pyridine], in the series on hexobarbital oxidase (setting [2]), the “Hexobarbital Narcosis period in % of the control, 1 hour” value is recorded as 259 ± 11.4 % of the control and the “Hexobarbital Narcosis period in % of the control (24 hours)” value is reported as 155 ± 9.6 % of the control. The mortality at 336 h in “acute toxicity” worked out at 0%. Besides, the Aminopyrine demethylase in the series on aminopyrine demethylase is 55 ± 4.4%.
For `CCC(O)(c1ccc(OCc2cccc(C)n2)cc1)c1cc(C)ccc1C` (centres unmarked) [B, 2-methyl-6-{4-[1-(2,5-dimethylphenyl)-1-hydroxypropyl]-phenoxymethyl}-pyridine], in that order: 135 ± 6.7 % of the control, 174 ± 7.2 % of the control, 0% and 63 ± 4.4%.
For the molecule `CCCC(C(=O)OCCN(CC)CC)(c1ccccc1)c1ccccc1` [Proadiphene, (2-diethylaminoethyl)-α,α-diphenyl valerate, reference compound], in the series with hexobarbital oxidase (setting [3]), the “Hexobarbital Narcosis period in % of the control, 1 hour” value is recorded as 241 ± 9.6 % of the control and the “Hexobarbital Narcosis period in % of the control (24 hours)” value is recorded as 44 ± 5.7 % of the control. In addition, the anticonvulsive side effect entry in series [1] is “exerted an anticonvulsive side effect”.
